What was measured:
renal cortical p21 [1] = test: Glycerol AKI model: renal cortical p21 mRNA (RT-PCR, factored by GAPDH) and p21 protein (ELISA); type: in vivo, male CD-1 mice
Description: (§1) The present inventors conducted studies to better understand the factors that drive renal p21 expression during AKI. All experiments were performed using male CD-1 mice (35-40 grams, Charles River Laboratories, Wilmington, Del.) maintained under routine vivarium conditions with free food and water access. The AKI models were approved by the institution's Animal Care and Utilization Committee). All surgical procedures were conducted under deep pentobarbital anesthesia (40-50 mg/Kg IP).
Mice were briefly anesthetized with isoflurane, and then subjected to intramuscular glycerol injection (administered in equally divided doses into each hind limb). The glycerol dose ware varied (6, 6.5, 7, 7.5, 8, 8.5, 9 ml/Kg; n˜2-3 per dose) in order to produce variable degrees of renal injury. At 4 hrs post glycerol injection, a tail vein tail vein blood sample (˜25 μl) was obtained, and at 18 hrs, the mice were deeply anesthetized with pentobarbital. The abdominal cavity was opened through a midline abdominal incision, a terminal vena cava blood sample was obtained, the kidneys were removed, iced, and renal cortical samples were cut and extracted for both protein and total RNA (RNeasy Mini+; Qiagen; Germantown, Md.). A terminal urine sample was collected from the urinary bladder. Plasma samples were assayed for blood urea nitrogen (BUN) and creatinine (Cr). Johnson A C, Zager R A. Plasma and urinary p21: potential biomarkers of AKI and renal aging. Am J Physiol 2018; Aug. 1. doi: 10.1152/ajprenal.00328.2018. [Epub ahead of print]. Renal cortical, plasma, and urinary p21 concentrations were determined with a ‘sandwich’ ELISA which employs two distinct monoclonal antibodies (capture; detection) directed against two different p21 epitopes, conferring p21 specificity; (#2120721; Abcam, Cambridge, Mass.). Renal cortical p21 mRNA levels were determined by RT-PCR, factored by GAPDH. Ten normal mice provided control plasma, urine, and tissue values for comparisons.
To assess renal cortical changes at an earlier time point than that noted above (18 hrs post glycerol injection), an additional 5 mice were subjected to glycerol injection (8.5 ml/Kg) and 4 hrs later, renal cortical protein/RNA samples were obtained for use in the above noted assays. The results were contrasted to those observed in 5 normal mice.
Pifithrin-α is a stable, water soluble, p53 inhibitor which blocks activation of p53 responsive genes. Dagher P C, Mai E M, Hato T, Lee S Y, Anderson M D Karozos S C Mang H E, Knipe N L, Plotkin Z, Sutton T A: The p53 inhibitor pifithrin can stimulate fibrosis in a rat model of ischemic acute kidney injury. Am J Physiol Renal Physiol 302: F284-F291, 2012; Komarov P G, Komarova E A, Kondratov R V, Christov-Tselkov K, Coon J S, Chernov M V et al. A chemical inhibitor of p53 that protects mice from the side effects of cancer therapy. Science 285: 1733-1737, 1999. As such, it has been used to differentiate p53-dependent vs. p53-independent pathways. To further explore the potential role of p53 on p21 gene activation, 3 mice were injected IP with 10 mg/Kg pifithrin-α (10% DMSO in saline; EMD Millipore #506154; Burlington, Mass.). Three additional mice received vehicle injection. Immediately thereafter the mice were injected with […] glycerol. Four hrs post glycerol injection, renal cortical tissues were analyzed for p21 and p53 mRNAs.
Inflammation can induce p21 gene activation via the inflammatory cascade (1, 2). Basile J R, Eichten A, Zacny V, Münger K. NF-kappaB-mediated induction of p21(Cip1/Waf1) by tumor necrosis factor alpha induces growth arrest and cytoprotection in normal human keratinocytes. Mol Cancer Res. 2003; 4: 262-270; Bellido T, O'Brien C A, Roberson P K, Manolagas S C: Transcriptional Activation of the p21WAF1,CIP1,SDI1 Gene by Interleukin-6 Type Cytokines. J Biol Chem 1998; 273:21137-21144. […]

renal cortical p21 [2] = test: Normal mice (no renal injury): renal cortical p21 protein and mRNA; type: in vivo, male CD-1 mice
Description: The present inventors conducted studies to better understand the factors that drive renal p21 expression during AKI. All experiments were performed using male CD-1 mice (35-40 grams, Charles River Laboratories, Wilmington, Del.) maintained under routine vivarium conditions with free food and water access. The AKI models were approved by the institution's Animal Care and Utilization Committee). All surgical procedures were conducted under deep pentobarbital anesthesia (40-50 mg/Kg IP). Mice were briefly anesthetized with isoflurane, and then subjected to intramuscular glycerol injection (administered in equally divided doses into each hind limb). […] At 4 hrs post glycerol injection, a tail vein tail vein blood sample (˜25 μl) was obtained, and at 18 hrs, the mice were deeply anesthetized with pentobarbital. The abdominal cavity was opened through a midline abdominal incision, a terminal vena cava blood sample was obtained, the kidneys were removed, iced, and renal cortical samples were cut and extracted for both protein and total RNA (RNeasy Mini+; Qiagen; Germantown, Md.). A terminal urine sample was collected from the urinary bladder. Plasma samples were assayed for blood urea nitrogen (BUN) and creatinine (Cr). Johnson A C, Zager R A. Plasma and urinary p21: potential biomarkers of AKI and renal aging. Am J Physiol 2018; […] [Epub ahead of print]. Renal cortical, plasma, and urinary p21 concentrations were determined with a ‘sandwich’ ELISA which employs two distinct monoclonal antibodies (capture; detection) directed against two different p21 epitopes, conferring p21 specificity; (#2120721; Abcam, Cambridge, Mass.). Renal cortical p21 mRNA levels were determined by RT-PCR, factored by GAPDH. Ten normal mice provided control plasma, urine, and tissue values for comparisons. To determine the impact of DXM on renal p21 expression in the absence of renal injury, 5 mice were injected with DXM as above, and 4 hrs later p21 protein/mRNA levels were measured and compared to normal values. Given an unexpected finding that corticosteroid injection increased, rather than suppressed, p21 expression, and given that endogenous cortisol levels were markedly elevated post-glycerol injection, we questioned whether glucocorticoid receptor (GCR) blockade would decrease p21 expression. […] Four hrs later, the kidneys were removed and renal cortices were analyzed for p21 mRNA and protein levels. Four mice, treated with mifepristone in the absence of glycerol injection, served to evaluate its effects in the absence of glycerol injection.

[3] = in vivo; cited from earlier work
[4] = relative to cortisol = 1; cited from earlier work
renal cortical p53 mRNA = test: Glycerol AKI model: renal cortical p53 mRNA; type: in vivo, male CD-1 mice; settings: 4 hr post glycerol + pifithrin-α 10 mg/Kg IP; mean ± SEM; glycerol alone 0.75±0.02; NS
Description: as §1
Mice were briefly anesthetized with isoflurane, and then subjected to intramuscular glycerol injection (administered in equally divided doses into each hind limb). The glycerol dose ware varied (6, 6.5, 7, 7.5, 8, 8.5, 9 ml/Kg; n˜2-3 per dose) in order to produce variable degrees of renal injury. […] Renal cortical, plasma, and urinary p21 concentrations were determined with a ‘sandwich’ ELISA which employs two distinct monoclonal antibodies (capture; detection) directed against two different p21 epitopes, conferring p21 specificity; (#2120721; Abcam, Cambridge, Mass.). Renal cortical p21 mRNA levels were determined by RT-PCR, factored by GAPDH. […]
Pifithrin-α is a stable, water soluble, p53 inhibitor which blocks activation of p53 responsive genes. […] Four hrs post glycerol injection, renal cortical tissues were analyzed for p21 and p53 mRNAs. […]

[5] = 4 hr post glycerol kidneys, DXM 250 μg IP 30 min before glycerol 8.5 ml/Kg
[6] = normal mice, within 4 hrs of DXM injection (250 μg IP)
[7] = glycerol treated mice, 4 hrs, MFP 30 mg/Kg, in words
[8] = control mice, 4 hrs post MFP 30 mg/Kg, in words

Question: For `C[C@@H]1C[C@H]2[C@@H]3CCC4=CC(=O)C=C[C@]4(C)[C@@]3(F)[C@@H](O)C[C@]2(C)[C@@]1(O)C(=O)CO` [Dexamethasone], which “increase in p21 mRNA” value (renal cortical p21 [1]; [5]) is on record?
Answer: ~3 fold

Question: And the “increase in p21 protein” value (renal cortical p21 [1]; [5])?
Answer: ~3 fold

Question: What about the “increase in renal cortical p21 mRNA” value (renal cortical p21 [2]; [6]) of the same molecule?
Answer: 15 ×

Question: What about the “increase in renal cortical p21 protein” value (renal cortical p21 [2]; [6]) of the same molecule?
Answer: 10 ×

Question: For `C[C@H]1C[C@@H]2[C@H]([C@@H](O)C[C@@]3(C)[C@H]2CC[C@]3(O)C(=O)CO)[C@@]2(C)C=CC(=O)C=C12` [Methylprednisolone], which “Terminal half-life” value [3] is on record?
Answer: 18 to 40 h

Question: With `C[C@]12CCC(=O)C=C1CC[C@@H]1[C@@H]2C(=O)C[C@@]2(C)[C@H]1CC[C@]2(O)C(=O)CO` [Cortisone] as the molecule, how does the Glucocorticoid potency [4] read?
Answer: 0.8

Question: With `C[C@]12CCC(=O)C=C1CC[C@@H]1[C@@H]2[C@@H](O)C[C@@]2(C)[C@H]1CC[C@]2(O)C(=O)CO` [Cortisol] as the molecule, how does the “effect on 4 hr post glycerol p21 mRNA levels” value (renal cortical p21 [1]; cortisol 1 mg/Kg IP 30 min before glycerol 8.5 ml/Kg, in words) read?
Answer: to the same degree as did DXM injection

Question: And the Glucocorticoid potency [4]?
Answer: 1

Question: What about the “Terminal half-life” value [3] of the same molecule?
Answer: 8 h

Question: With `C[C@]12C=CC(=O)C=C1CC[C@H]1[C@@H]3C[C@@H](O)[C@](O)(C(=O)CO)[C@@]3(C)C[C@H](O)[C@@]12F` [Triamcinolone] as the molecule, how does the Glucocorticoid potency [4] read?
Answer: 5

Question: And the “Terminal half-life” value [3]?
Answer: 12 to 36 h

Question: For `CC#C[C@]1(O)CC[C@H]2[C@@H]3CCC4=CC(=O)CCC4=C3[C@@H](c3ccc(N(C)C)cc3)C[C@@]21C` [Mifepristone], which “effect on p21 protein levels” value (renal cortical p21 [1]; [7]) is on record?
Answer: normalized

Question: What about the “effect on post glycerol p21 mRNA levels” value (renal cortical p21 [1]; [7]) of the same molecule?
Answer: modest reduction

Question: And the “effect on p21 mRNA values” (renal cortical p21 [2]; [8])?
Answer: no significant decrease

Question: What about the “effect on p21 protein values” (renal cortical p21 [2]; [8]) of the same molecule?
Answer: no significant decrease

Question: For `C[C@]12C=CC(=O)C=C1CC[C@@H]1[C@@H]2C(=O)C[C@@]2(C)[C@H]1CC[C@]2(O)C(=O)CO` [Prednisone], which “Terminal half-life” value [3] is on record?
Answer: 16 to 36 h

Question: Which results are given for `Cc1ccc(C(=O)Cn2c3c(sc2=N)CCCC3)cc1` [pifithrin-α, Pifithrin-α]?
Answer: renal cortical p21 mRNA (renal cortical p21 [1]; 4 hr post glycerol + pifithrin-α 10 mg/Kg IP, mean ± SEM, controls 0.34±0.1, glycerol alone 1.43±0.11): 1.71±0.08; renal cortical p53 mRNA (renal cortical p53 mRNA): 0.7±0.03

Question: Which Glucocorticoid potency [4] does the source give for `C[C@]12C=CC(=O)C=C1CC[C@@H]1[C@@H]2[C@@H](O)C[C@@]2(C)[C@H]1CC[C@]2(O)C(=O)CO` [Prednisolone] here?
Answer: 4

Question: And the “Terminal half-life” value [3]?
Answer: 16 to 36 h

Source: patent publication US20200171051A1, “METHODS FOR TREATING RENAL INJURY BY […] UPREGULATING P21” (RENIBUS THERAPEUTICS, INC., priority 2018, published 2020)
